Counter-ions that a name gives are not always drawn.
What follows are compounds tested against human MCH-1 receptor (Homo sapiens (Human), UniProt Q99705) (assay: Binding assay for human melanin-concentrating hormone (MCH1) receptor). Details: membranes from CHO-K1 cells expressing human MCH-1 receptor; 1.4 nM [3H]-labeled radioligand; 60 min at 25° C.; Ki by Cheng Prusoff.
Procedure: Evaluation of the affinity of compounds for the human MCH-1 receptor was accomplished using 4-(3,4,5-tritritiumbenzyloxy)-1-(1-(2-(pyrrolidin-1-yl)ethyl)-1H-indazol-5-yl)pyridin-2(1H)-one and membranes prepared from stable CHO-K1 cells expressing the human MCH-1 receptor obtained from Euroscreen (Batch 1138). Cell membrane homogenates (8.92 μg protein) were incubated for 60 min at 25° C. with 1.4 nM of the [^3H]-labeled compound in the absence or presence of the test compound in 50 mM Tris-HCl buffer, pH 7.4. Nonspecific binding was determined in the presence of 50 μM 1-(5-(4-cyanophenyl)bicyclo[3.1.0]hexan-2-yl)-3-(4-fluoro-3-(trifluoromethyl)phenyl)-1-(3-(4-methylpiperazin-1-yl)propyl)urea. Following incubation, the samples were filtered rapidly under vacuum through Skatron 11731 filters, pre-soaked in 0.5% polyethylenimine, and washed with ice-cold 50 mM Tris-HCl buffer, pH 7.4, (wash setting 9,9,0) using a Skatron cell harvester. The filters were counted for radioactivity in a liquid scintillation counter (Tri-Carb 2100TR, Packard) using a scintillation cocktail (Ultima Gold MV, Perkin Elmer).
The results are expressed as a percent inhibition of the control radioligand specific binding. The IC50 value (concentration causing a half-maximal inhibition of control specific binding) and Hill coefficient (nH) were determined by non-linear regression analysis of the competition curve using Hill equation curve fitting. The inhibition constant (Ki) was calculated from the Cheng Prusoff equation: (Ki=IC50/(1+(L/KD)), where L=concentration of radioligand in the assay, and KD=affinity of the radioligand for the receptor.

Chain of human MCH-1 receptor (Q99705 whole entry): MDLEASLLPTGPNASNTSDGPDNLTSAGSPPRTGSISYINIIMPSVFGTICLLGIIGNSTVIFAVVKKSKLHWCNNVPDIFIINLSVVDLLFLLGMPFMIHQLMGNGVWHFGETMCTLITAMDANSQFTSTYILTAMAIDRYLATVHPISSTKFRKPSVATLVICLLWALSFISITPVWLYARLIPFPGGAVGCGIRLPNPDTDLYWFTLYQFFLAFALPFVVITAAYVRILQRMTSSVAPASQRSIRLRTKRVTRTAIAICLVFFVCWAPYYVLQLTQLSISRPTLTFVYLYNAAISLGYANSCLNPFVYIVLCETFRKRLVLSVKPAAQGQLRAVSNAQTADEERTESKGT

SMILES | Ki [nM]
Cn1c2c(c3ccc(-n4ccc(OCc5ccccc5)cc4=O)cc31)CN1CCC2C1 (stereo not shown) [Example 2, 4-(Benzyloxy)-1-(6-methyl-3,4,5,6-tetrahydro-1H-2,5-methanoazepino[4,3-b]indol-8-yl)pyridin-2(1H)-one hydrochloride] | 6.4
Cn1c2c(c3ccc(-n4ccc(OCc5ccccc5)cc4=O)cc31)CN1CCC2CC1 [Example 3, 4-(Benzyloxy)-1-(6-methyl-3,4,5,6-tetrahydro-1H-2,5-ethanoazepino[4,3-b]indol-8-yl)pyridin-2(1H)-one hydrochloride] | 5.9
Cn1c2c(c3ccc(-n4ccc(OCc5ccc(F)cn5)cc4=O)cc31)CN1CCC2CC1 [Example 4, 4-((5-Fluoropyridin-2-yl)methoxy)-1-(6-methyl-3,4,5,6-tetrahydro-1H-2,5-ethanoazepino[4,3-b]indol-8-yl)pyridin-2(1H)-one hydrochloride] | 44
Cn1c2c(c3ccc(-n4ccc(-c5ccc(C(F)(F)F)nn5)cc4=O)cc31)CN1CCC2CC1 [Example 5, 1-(6-Methyl-3,4,5,6-tetrahydro-1H-2,5-ethanoazepino[4,3-b]indol-8-yl)-4-(6-(trifluoromethyl)pyridazin-3-yl)pyridin-2(1H)-one hydrochloride] | 23
Cn1c2c(c3ccc(-n4ccc(-c5ccc(C(F)(F)F)cn5)cc4=O)cc31)CN1CCC2CC1 [Example 6, 1-(6-Methyl-3,4,5,6-tetrahydro-1H-2,5-ethanoazepino[4,3-b]indol-8-yl)-4-(5-(trifluoromethyl)pyridin-2-yl)pyridin-2(1H)-one hydrochloride] | 123
Cn1c2c(c3ccc(-n4ccc(OCc5ccc(C(F)(F)F)nc5)cc4=O)cc31)CN1CCC2CC1 [Example 7, 1-(6-Methyl-3,4,5,6-tetrahydro-1H-2,5-ethanoazepino[4,3-b]indol-8-yl)-4-((6-(trifluoromethyl)pyridin-3-yl)methoxy)pyridin-2(1H)-one hydrochloride] | 11
Cn1c2c(c3ccc(-n4ccc(OCc5ccccc5)cc4=O)nc31)CN1CCC2CC1 [Example 8, 4-(Benzyloxy)-1-(10-methyl-7,8,9,10-tetrahydro-5H-6,9-ethanopyrido[3′,2′:4,5]pyrrolo[3,2-c]azepin-2-yl)pyridin-2(1H)-one hydrochloride] | 29
Cn1c2c(c3ccc(-n4ccc(OCc5ccc(F)cc5F)cc4=O)nc31)CN1CCC2CC1 [Example 9, 4-(2,4-Difluorobenzyloxy)-1-(10-methyl-7,8,9,10-tetrahydro-5H-6,9-ethanopyrido[3′,2′:4,5]pyrrolo[3,2-c]azepin-2-yl)pyridin-2(1H)-one hydrochloride] | 15
Cn1c2c(c3ccc(-n4ccc(-c5ccc(C(F)(F)F)cc5)cc4=O)nc31)CN1CCC2CC1 [Example 10, 1-(10-Methyl-7,8,9,10-tetrahydro-5H-6,9-ethanopyrido[3′,2′:4,5]pyrrolo[3,2-c]azepin-2-yl)-4-(4-(trifluoromethyl)phenyl)pyridin-2(1H)-one hydrochloride] | 15
Cn1c2c(c3ccc(-n4ccc(OCc5ccc(F)cn5)cc4=O)nc31)CN1CCC2CC1 [Example 11, 4-((5-Fluoropyridin-2-yl)methoxy)-1-(10-methyl-7,8,9,10-tetrahydro-5H-6,9-ethanopyrido[3′,2′:4,5]pyrrolo[3,2-c]azepin-2-yl)pyridin-2(1H)-one hydrochloride] | 25
